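Briefly, cells in 96-well plates were exposed to five compound concentrations for 48 h, and endpoints were estimated by linear interpolation. GI50 is the concentration that inhibits growth by half.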 Active and inactive are the calls of the source. Rule as the data show it: active = GI50 up to about 1.1 µM and inactive = higher.
Assays:
Test in all cases: NCI tumour cell line growth inhibition, 48 h
A498 = system: A498
786-0 = system: 786-0
A549 = system: A549
ACHN = system: ACHN
CAKI-1 = system: CAKI-1
CCRF-CEM = system: CCRF-CEM
COLO 205 = system: COLO 205
DU-145 = system: DU-145
EKVX = system: EKVX
HCC 2998 = system: HCC 2998
HCT-116 = system: HCT-116
HCT-15 = system: HCT-15
HL-60 = system: HL-60
HOP-62 = system: HOP-62
HOP-92 = system: HOP-92
HT-29 = system: HT-29
Hs-578T = system: Hs-578T
IGROV-1 = system: IGROV-1
K562 = system: K562
KM12 = system: KM12
LOX IMVI = system: LOX IMVI
M14 = system: M14
MCF7 = system: MCF7
MDA-MB-231 = system: MDA-MB-231
MDA-MB-435 = system: MDA-MB-435
MDA-N = system: MDA-N
MOLT-4 = system: MOLT-4
Malme-3M = system: Malme-3M
NCI-H226 = system: NCI-H226
NCI-H23 = system: NCI-H23
NCI-H460 = system: NCI-H460
NCI-H522 = system: NCI-H522
NCI/ADR-RES = system: NCI/ADR-RES
OVCAR-3 = system: OVCAR-3
OVCAR-4 = system: OVCAR-4
OVCAR-5 = system: OVCAR-5
OVCAR-8 = system: OVCAR-8
PC-3 = system: PC-3
RPMI-8226 = system: RPMI-8226
RXF 393 = system: RXF 393
SF-268 = system: SF-268
SF-295 = system: SF-295
SF-539 = system: SF-539
SK-MEL-28 = system: SK-MEL-28
SK-MEL-5 = system: SK-MEL-5
SK-OV-3 = system: SK-OV-3
SN12C = system: SN12C
SNB-19 = system: SNB-19
SNB-75 = system: SNB-75
SR = system: SR
SW-620 = system: SW-620
T47D = system: T47D
TK-10 = system: TK-10
U-251 = system: U-251
UACC-257 = system: UACC-257
UACC-62 = system: UACC-62
UO-31 = system: UO-31
SK-MEL-2 = system: SK-MEL-2

Nc1ncnc2c(C3OC(CO)C(O)C3O)nsc12 (stereo not given)
GI50 (A498): < 0.0115 µM (active)

O=c1[nH]nc(Cc2ccccc2)n1C1CC1
GI50 (786-0): > 100 µM (inactive) | GI50 (A498): > 100 µM (inactive) | GI50 (A549): > 100 µM (inactive) | GI50 (ACHN): > 100 µM (inactive) | GI50 (CAKI-1): > 100 µM (inactive) | GI50 (CCRF-CEM): > 100 µM (inactive) | GI50 (COLO 205): > 100 µM (inactive) | GI50 (DU-145): > 100 µM (inactive) | GI50 (EKVX): > 100 µM (inactive) | GI50 (HCC 2998): > 100 µM (inactive) | GI50 (HCT-116): > 100 µM (inactive) | GI50 (HCT-15): > 100 µM | GI50 (HL-60): > 100 µM (inactive) | GI50 (HOP-62): > 100 µM (inactive) | GI50 (HOP-92): > 100 µM (inactive) | GI50 (HT-29): > 100 µM (inactive) | GI50 (Hs-578T): > 100 µM (inactive) | GI50 (IGROV-1): > 100 µM (inactive) | GI50 (K562): > 100 µM (inactive) | GI50 (KM12): > 100 µM (inactive) | GI50 (LOX IMVI): > 100 µM (inactive) | GI50 (M14): > 100 µM (inactive) | GI50 (MCF7): > 100 µM (inactive) | GI50 (MDA-MB-231): > 100 µM (inactive) | GI50 (MDA-MB-435): > 100 µM (inactive) | GI50 (MDA-N): > 100 µM (inactive) | GI50 (MOLT-4): > 100 µM (inactive) | GI50 (Malme-3M): > 100 µM (inactive) | GI50 (NCI-H226): > 100 µM (inactive) | GI50 (NCI-H23): > 100 µM (inactive) | GI50 (NCI-H460): > 100 µM (inactive) | GI50 (NCI-H522): > 100 µM (inactive) | GI50 (NCI/ADR-RES): > 100 µM (inactive) | GI50 (OVCAR-3): > 100 µM (inactive) | GI50 (OVCAR-4): > 100 µM (inactive) | GI50 (OVCAR-5): > 100 µM (inactive) | GI50 (OVCAR-8): > 100 µM (inactive) | GI50 (PC-3): > 100 µM (inactive) | GI50 (RPMI-8226): > 100 µM (inactive) | GI50 (RXF 393): > 100 µM (inactive) | GI50 (SF-268): > 100 µM (inactive) | GI50 (SF-295): > 100 µM (inactive) | GI50 (SF-539): > 100 µM (inactive) | GI50 (SK-MEL-28): > 100 µM (inactive) | GI50 (SK-MEL-5): > 100 µM (inactive) | GI50 (SK-OV-3): > 100 µM (inactive) | GI50 (SN12C): > 100 µM (inactive) | GI50 (SNB-19): > 100 µM (inactive) | GI50 (SNB-75): > 100 µM (inactive) | GI50 (SR): > 100 µM (inactive) | GI50 (SW-620): > 100 µM (inactive) | GI50 (T47D): > 100 µM (inactive) | GI50 (TK-10): > 100 µM (inactive) | GI50 (U-251): > 100 µM (inactive) | GI50 (UACC-257): > 100 µM (inactive) | GI50 (UACC-62): > 100 µM (inactive) | GI50 (UO-31): 61.7 µM (inactive)

O=C1C(=Cc2cccc(O)c2)N=C(c2ccccc2)N1n1c(-c2ccccc2)nc2ccccc2c1=O
GI50 (786-0): 39.8 µM (inactive) | GI50 (A498): 34.7 µM (inactive) | GI50 (A549): 36.9 µM (inactive) | GI50 (ACHN): 21.6 µM (inactive) | GI50 (CAKI-1): 24.7 µM (inactive) | GI50 (CCRF-CEM): 24.3 µM (inactive) | GI50 (COLO 205): 31.4 µM (inactive) | GI50 (DU-145): 27.7 µM (inactive) | GI50 (EKVX): 34.9 µM (inactive) | GI50 (HCT-116): 17.5 µM (inactive) | GI50 (HCT-15): 34.7 µM | GI50 (HL-60): 25.2 µM (inactive) | GI50 (HOP-92): 15.5 µM (inactive) | GI50 (HT-29): 32.6 µM (inactive) | GI50 (Hs-578T): 14.3 µM (inactive) | GI50 (IGROV-1): 20.7 µM (inactive) | GI50 (K562): 37.3 µM (inactive) | GI50 (KM12): 24.9 µM (inactive) | GI50 (LOX IMVI): 23.4 µM (inactive) | GI50 (M14): 37.2 µM (inactive) | GI50 (MDA-MB-231): 36.9 µM (inactive) | GI50 (MDA-MB-435): 35.6 µM (inactive) | GI50 (MOLT-4): 15.9 µM (inactive) | GI50 (Malme-3M): 27.7 µM (inactive) | GI50 (NCI-H226): 0.48 µM (active) | GI50 (NCI-H23): 22.1 µM (inactive) | GI50 (NCI-H460): 23.6 µM (inactive) | GI50 (NCI-H522): 17.1 µM (inactive) | GI50 (NCI/ADR-RES): 68.5 µM (inactive) | GI50 (OVCAR-3): 22.4 µM (inactive) | GI50 (OVCAR-4): 29.6 µM (inactive) | GI50 (OVCAR-5): 37.1 µM (inactive) | GI50 (OVCAR-8): 31.4 µM (inactive) | GI50 (PC-3): 23.8 µM (inactive) | GI50 (RPMI-8226): 17.4 µM (inactive) | GI50 (RXF 393): 8.28 µM (inactive) | GI50 (SF-268): 25 µM (inactive) | GI50 (SF-295): 24 µM (inactive) | GI50 (SF-539): 17.9 µM (inactive) | GI50 (SK-MEL-28): 25.2 µM (inactive) | GI50 (SK-MEL-5): 23.7 µM (inactive) | GI50 (SK-OV-3): 33.3 µM (inactive) | GI50 (SN12C): 34.1 µM (inactive) | GI50 (SNB-19): 25.9 µM (inactive) | GI50 (SR): 16.4 µM (inactive) | GI50 (SW-620): 42.3 µM (inactive) | GI50 (T47D): 34.9 µM (inactive) | GI50 (TK-10): 48.3 µM (inactive) | GI50 (U-251): 35.4 µM (inactive) | GI50 (UACC-257): 29 µM (inactive) | GI50 (UACC-62): 19.7 µM (inactive) | GI50 (UO-31): 27.2 µM (inactive)

[O-][S+](C(c1ccccc1)=P(c1ccccc1)(c1ccccc1)c1ccccc1)c1ccc(Cl)cc1 (stereo not given)
GI50 (786-0): 30.8 µM (inactive) | GI50 (A498): 11.1 µM (inactive) | GI50 (ACHN): 26.4 µM (inactive) | GI50 (CAKI-1): 60.5 µM (inactive) | GI50 (CCRF-CEM): 20.9 µM (inactive) | GI50 (DU-145): 13.9 µM (inactive) | GI50 (EKVX): 27.3 µM (inactive) | GI50 (HCC 2998): 28.4 µM (inactive) | GI50 (HCT-116): 20.7 µM (inactive) | GI50 (HCT-15): 34.9 µM | GI50 (HL-60): 11.5 µM (inactive) | GI50 (HOP-62): 25.6 µM (inactive) | GI50 (HOP-92): 13.1 µM (inactive) | GI50 (HT-29): 21.3 µM (inactive) | GI50 (Hs-578T): 19.8 µM (inactive) | GI50 (IGROV-1): 21.8 µM (inactive) | GI50 (K562): 14.2 µM (inactive) | GI50 (KM12): 14.2 µM (inactive) | GI50 (LOX IMVI): 20.6 µM (inactive) | GI50 (M14): 25.5 µM (inactive) | GI50 (MCF7): 17.9 µM (inactive) | GI50 (MDA-MB-231): 19.3 µM (inactive) | GI50 (MDA-MB-435): 11.7 µM (inactive) | GI50 (MDA-N): 13.3 µM (inactive) | GI50 (MOLT-4): 29.1 µM (inactive) | GI50 (NCI-H226): 55.7 µM (inactive) | GI50 (NCI-H23): 26.7 µM (inactive) | GI50 (NCI-H460): 24.2 µM (inactive) | GI50 (NCI-H522): 11.8 µM (inactive) | GI50 (NCI/ADR-RES): 66.7 µM (inactive) | GI50 (OVCAR-3): 22.3 µM (inactive) | GI50 (OVCAR-4): 17.1 µM (inactive) | GI50 (OVCAR-5): 41.9 µM (inactive) | GI50 (OVCAR-8): 28.1 µM (inactive) | GI50 (PC-3): 23.2 µM (inactive) | GI50 (RPMI-8226): 6.98 µM (inactive) | GI50 (RXF 393): 21.3 µM (inactive) | GI50 (SF-268): 20.4 µM (inactive) | GI50 (SF-295): 33.7 µM (inactive) | GI50 (SF-539): 60 µM (inactive) | GI50 (SK-MEL-28): 22 µM (inactive) | GI50 (SK-MEL-2): 20.8 µM (inactive) | GI50 (SK-MEL-5): 12.1 µM (inactive) | GI50 (SK-OV-3): 24.4 µM (inactive) | GI50 (SNB-75): 60.4 µM (inactive) | GI50 (SR): 19.5 µM (inactive) | GI50 (SW-620): 23.6 µM (inactive) | GI50 (T47D): 7.83 µM (inactive) | GI50 (TK-10): 31.9 µM (inactive) | GI50 (U-251): 21.2 µM (inactive) | GI50 (UACC-257): 12.5 µM (inactive) | GI50 (UO-31): 46.1 µM (inactive)

Nc1ccc(S(=O)(=O)Nc2ncccn2)cc1 [SULFADIAZINE, SILVER]
GI50 (CCRF-CEM): 1.82 µM (inactive) | GI50 (K562): 2.12 µM (inactive) | GI50 (NCI-H522): 1.77 µM (inactive)
